Data reported in publication PMC5241706, “Biochemical and Structural Characterization of Selective Allosteric Inhibitors of the Plasmodium falciparum Drug Target, Prolyl-tRNA-synthetase” (ACS Infectious Diseases, 2016).
Where two headings read alike, the source gives them in different places.

Legend:
PfProRS = target: T1, PfProRS (Plasmodium falciparum, UniProt Q8I5R7); test: luciferase ATP depletion assay, HTS format; type: biochemical; settings: read-out: Percentage inhibition Pf ProRS
T1 construct: B2, AA7–746 (minus 6 amino acids, or 99% of the ORF); made in house; host or cells: E. coli BL21(DE3)R3 Rosetta Oxford
T1 sequence (Q8I5R7 7-746): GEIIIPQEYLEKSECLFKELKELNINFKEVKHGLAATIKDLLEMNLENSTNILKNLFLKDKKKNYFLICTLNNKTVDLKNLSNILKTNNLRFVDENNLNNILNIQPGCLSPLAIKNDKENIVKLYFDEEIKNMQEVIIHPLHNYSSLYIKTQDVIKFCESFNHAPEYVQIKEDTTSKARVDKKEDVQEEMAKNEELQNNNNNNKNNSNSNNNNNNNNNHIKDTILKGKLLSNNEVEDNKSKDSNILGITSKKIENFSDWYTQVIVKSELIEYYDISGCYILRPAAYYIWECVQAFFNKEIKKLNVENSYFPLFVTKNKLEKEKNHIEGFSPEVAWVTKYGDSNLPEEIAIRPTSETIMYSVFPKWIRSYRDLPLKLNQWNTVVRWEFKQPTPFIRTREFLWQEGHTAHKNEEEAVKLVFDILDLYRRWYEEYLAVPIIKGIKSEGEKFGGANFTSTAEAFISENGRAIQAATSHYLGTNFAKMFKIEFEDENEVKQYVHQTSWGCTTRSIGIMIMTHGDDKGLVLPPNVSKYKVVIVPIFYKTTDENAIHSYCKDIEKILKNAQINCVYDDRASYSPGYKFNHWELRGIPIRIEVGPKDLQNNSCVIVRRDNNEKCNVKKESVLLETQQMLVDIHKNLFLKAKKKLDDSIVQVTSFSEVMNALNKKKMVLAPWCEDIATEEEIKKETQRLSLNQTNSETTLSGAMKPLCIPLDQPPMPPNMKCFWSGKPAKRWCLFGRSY

HsProRS = target: T2, HsProRS (Homo sapiens, UniProt P07814); test: luciferase ATP depletion assay, counter-screen; type: biochemical; settings: read-out: Percentage inhibition Hs ProRS; for inhibition at 187.5 µM: at 187.50 μM
T2 construct: made in house
T2 sequence (P07814 1007-1512 limits assumed): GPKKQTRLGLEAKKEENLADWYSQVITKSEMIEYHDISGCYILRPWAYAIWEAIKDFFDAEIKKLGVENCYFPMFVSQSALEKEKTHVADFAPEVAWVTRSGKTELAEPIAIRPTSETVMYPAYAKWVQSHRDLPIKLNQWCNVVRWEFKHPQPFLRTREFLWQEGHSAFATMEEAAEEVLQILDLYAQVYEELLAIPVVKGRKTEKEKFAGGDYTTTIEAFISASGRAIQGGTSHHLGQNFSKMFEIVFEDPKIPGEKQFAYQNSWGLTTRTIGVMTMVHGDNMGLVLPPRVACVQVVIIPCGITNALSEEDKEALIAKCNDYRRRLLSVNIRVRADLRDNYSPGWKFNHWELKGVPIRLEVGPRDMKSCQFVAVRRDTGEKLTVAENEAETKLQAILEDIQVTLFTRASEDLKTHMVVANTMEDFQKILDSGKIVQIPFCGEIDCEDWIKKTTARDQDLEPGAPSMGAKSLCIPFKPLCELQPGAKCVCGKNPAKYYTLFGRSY

[1] = system: Plasmodium falciparum strain 3D7; test: Plasmodium falciparum growth inhibition, SYBR green fluorescence; type: cell-based; settings: P. falciparum 3D7, read-out: potency range (drug control)

SMILES: Cc1c(Nc2ncccc2C(=O)O)cccc1C(F)(F)F [flunixin meglumine]
- inhibition at 0.73 µM (PfProRS): 0.6%
- inhibition at 1.46 µM (PfProRS): -0.28%
- inhibition at 2.93 µM (PfProRS): -0.7%
- inhibition at 5.86 µM (PfProRS): -0.41%
- inhibition at 11.72 µM (PfProRS): 1.63%
- inhibition at 23.44 µM (PfProRS): 2.17%
- inhibition at 46.88 µM (PfProRS): 11.4%
- inhibition at 93.75 µM (PfProRS): 30.7%
- inhibition at 187.5 µM (PfProRS): 62%
- inhibition at 375 µM (PfProRS): 87.1%
- inhibition at 750 µM (PfProRS): 99.8%
- inhibition at 0.73 µM (HsProRS): 0.21%
- inhibition at 1.46 µM (HsProRS; at 1.46 μM (750 μM series)): 0.19%
- inhibition at 2.93 µM (HsProRS): 0.2%
- inhibition at 5.86 µM (HsProRS): 0.17%
- inhibition at 11.72 µM (HsProRS): 0.37%
- inhibition at 23.44 µM (HsProRS): 0.52%
- inhibition at 46.88 µM (HsProRS): 0.27%
- inhibition at 93.75 µM (HsProRS): -0.02%
- inhibition at 187.5 µM (HsProRS): 0.03%
- inhibition at 375 µM (HsProRS): 0.43%
- inhibition at 750 µM (HsProRS): 1.37%

SMILES: O=C(CCn1cncn1)N1CCCC(c2[nH]c3ccccc3c2-c2ccncc2)C1 (stereo not drawn) [TCMDC-125377]
- inhibition at 0.28 µM (PfProRS; at 0.28 μM): 6.8%
- inhibition at 0.03 µM (PfProRS): 1.17%
- inhibition at 0.09 µM (PfProRS): 2.41%
- inhibition at 0.83 µM (PfProRS): 15.4%
- inhibition at 2.5 µM (PfProRS): 24.7%
- inhibition at 7.5 µM (PfProRS): 33.9%
- inhibition at 22.5 µM (PfProRS): 40.1%
- inhibition at 0.03 µM (HsProRS; at 0.03 μM (22.50 μM series)): 0.18%
- inhibition at 0.09 µM (HsProRS; at 0.09 μM): -0.1%
- inhibition at 0.28 µM (HsProRS; at 0.28 μM): -0.22%
- inhibition at 0.83 µM (HsProRS; at 0.83 μM): -0.91%
- inhibition at 2.5 µM (HsProRS; at 2.50 μM (22.50 μM series)): -0.37%
- inhibition at 7.5 µM (HsProRS; at 7.50 μM): 0.2%
- inhibition at 22.5 µM (HsProRS; at 22.50 μM): 0.03%

SMILES: OC(c1cc(C(F)(F)F)nc2c(C(F)(F)F)cccc12)C1CCCCN1 (stereo not drawn) [Mefloquine, reference compound]
- EC50 [1]: 0.03 to 0.06 µM

SMILES: Cc1ccc(-c2oc(N)c(C#N)c2-c2ccc(C)cc2)cc1 [SJ000368256]
- inhibition at 0.12 µM (PfProRS): -0.29%
- inhibition at 0.37 µM (PfProRS): -0.09%
- inhibition at 1.46 µM (PfProRS): -0.33%
- inhibition at 3.33 µM (PfProRS): 0.44%
- inhibition at 10 µM (PfProRS): 0.96%
- inhibition at 30 µM (PfProRS): 39.7%
- inhibition at 0.12 µM (HsProRS; at 0.12 μM (30 μM series)): -0.1%
- inhibition at 0.37 µM (HsProRS; at 0.37 μM): 0.01%
- inhibition at 1.46 µM (HsProRS; at 1.46 μM (30 μM series)): -0.15%
- inhibition at 3.33 µM (HsProRS; at 3.33 μM): 0.06%
- inhibition at 10 µM (HsProRS; at 10.00 μM): 0.08%
- inhibition at 30 µM (HsProRS; at 30.00 μM): 0.41%

SMILES: CCn1nc(-c2ccc(C(=O)OC)cc2)nc2c(=O)n(C)c(=O)nc1-2 [MMV306025]
- inhibition at 0.03 µM (PfProRS): -0.55%
- inhibition at 0.06 µM (PfProRS): -0.04%
- inhibition at 0.12 µM (PfProRS): 0.62%
- inhibition at 0.23 µM (PfProRS): 4.5%
- inhibition at 0.47 µM (PfProRS): 21.8%
- inhibition at 0.94 µM (PfProRS): 28.4%
- inhibition at 1.88 µM (PfProRS): 30%
- inhibition at 2.5 µM (PfProRS): 72.8%
- inhibition at 0.03 µM (HsProRS; at 0.03 μM (MMV306025 series)): 0.3%
- inhibition at 0.06 µM (HsProRS; at 0.06 μM): -0.07%
- inhibition at 0.12 µM (HsProRS; at 0.12 μM (MMV306025 series)): 0.1%
- inhibition at 0.23 µM (HsProRS; at 0.23 μM): 0.67%
- inhibition at 0.47 µM (HsProRS; at 0.47 μM): 4.1%
- inhibition at 0.94 µM (HsProRS; at 0.94 μM): 14.9%
- inhibition at 1.88 µM (HsProRS; at 1.88 μM): 21.6%

SMILES: CCCc1nc2c(C)cc(-c3nc4ccccc4n3C)cc2n1Cc1ccc(-c2ccccc2C(=O)O)cc1 [telmisartan]
- inhibition at 0.73 µM (PfProRS): -0.36%
- inhibition at 1.46 µM (PfProRS): -0.06%
- inhibition at 2.93 µM (PfProRS): -0.17%
- inhibition at 5.86 µM (PfProRS): -0.08%
- inhibition at 11.72 µM (PfProRS): 2.19%
- inhibition at 23.44 µM (PfProRS): 3.94%
- inhibition at 46.88 µM (PfProRS): 13.4%
- inhibition at 93.75 µM (PfProRS): 48.8%
- inhibition at 187.5 µM (PfProRS): 80.8%
- inhibition at 375 µM (PfProRS): 15.5%
- inhibition at 750 µM (PfProRS): 11.8%
- inhibition at 0.73 µM (HsProRS): 0.44%
- inhibition at 1.46 µM (HsProRS; at 1.46 μM (750 μM series)): 0.05%
- inhibition at 2.93 µM (HsProRS): 0.04%
- inhibition at 5.86 µM (HsProRS): -0.1%
- inhibition at 11.72 µM (HsProRS): 0.01%
- inhibition at 23.44 µM (HsProRS): 0%
- inhibition at 46.88 µM (HsProRS): -0.02%
- inhibition at 93.75 µM (HsProRS): 0.37%
- inhibition at 187.5 µM (HsProRS): 4.23%
- inhibition at 375 µM (HsProRS): 0.25%
- inhibition at 750 µM (HsProRS): 0.58%

SMILES: N#CC(c1ccc(Cl)cc1)c1c(Cl)cc(-n2ncc(=O)[nH]c2=O)cc1Cl (stereo not drawn) [diclazuril]
- inhibition at 0.49 µM (PfProRS): 0.21%
- inhibition at 0.98 µM (PfProRS): -1.18%
- inhibition at 1.95 µM (PfProRS): -0.74%
- inhibition at 3.91 µM (PfProRS): -0.59%
- inhibition at 7.81 µM (PfProRS): 2.35%
- inhibition at 15.63 µM (PfProRS): 2.75%
- inhibition at 31.25 µM (PfProRS): 7.77%
- inhibition at 62.5 µM (PfProRS): 19.5%
- inhibition at 125 µM (PfProRS): 43%
- inhibition at 250 µM (PfProRS): 73.7%
- inhibition at 500 µM (PfProRS): 80.2%
- inhibition at 0.49 µM (HsProRS; at 0.49 μM): 0.05%
- inhibition at 0.98 µM (HsProRS; at 0.98 μM): -0.02%
- inhibition at 1.95 µM (HsProRS; at 1.95 μM): 0.08%
- inhibition at 3.91 µM (HsProRS; at 3.91 μM): 0.28%
- inhibition at 7.81 µM (HsProRS; at 7.81 μM): 0.42%
- inhibition at 15.63 µM (HsProRS; at 15.63 μM): 0.09%
- inhibition at 31.25 µM (HsProRS; at 31.25 μM): 0.4%
- inhibition at 62.5 µM (HsProRS; at 62.50 μM): 0.07%
- inhibition at 125 µM (HsProRS; at 125 μM): 0.68%
- inhibition at 250 µM (HsProRS; at 250 μM): 5.06%
- inhibition at 500 µM (HsProRS; at 500 μM): 9.51%
